This is an account of results in ChEMBL document CHEMBL1201862, “PubChem BioAssay data set” (2004).

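Briefly, cells in 96-well plates were exposed to five compound concentrations for 48 h, and endpoints were estimated by linear interpolation. At the GI50, growth is halved.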 Active and inactive are the calls of the source. No stated cut-off is given here; in the data, active = GI50 up to about 1.1 µM and inactive = higher.

Among the test systems are OVCAR-5; MDA-MB-435; SR; RPMI-8226; SK-MEL-28; PC-3; SNB-75; NCI-H522; CAKI-1; SF-268; U-251; T47D; A549; MDA-N; EKVX; RXF 393; SF-539; UACC-257; LOX IMVI; SN12C.
Assay in all cases: inhibition of tumour cell growth, NCI panel, 48 h

`CSc1ccc(NC(=O)CCl)cc1`: the GI50 was 3.33 µM (inactive) with OVCAR-5; 4.03 µM (inactive) in the experiment with MDA-MB-435; 2.7 µM (inactive) with SR; 3.32 µM (inactive) in the experiment with RPMI-8226; 5.7 µM (inactive) with SK-MEL-28; 3.9 µM (inactive) with PC-3. Moreover, the GI50 with SNB-75 was 2.53 µM (inactive); in the experiment with NCI-H522, 1.95 µM (inactive); in the experiment with CAKI-1 it was 2.97 µM (inactive); in the experiment on SF-268 it was > 10 µM (inactive); with U-251, 5.19 µM (inactive); in the experiment with T47D it was > 10 µM (inactive). Moreover, the GI50 with A549 is 2.44 µM (inactive); in the experiment on MDA-N it was 4.84 µM (inactive); in the experiment with EKVX, > 10 µM (inactive); with RXF 393, 3.17 µM (inactive); with SF-539, 3.95 µM (inactive); in the experiment on UACC-257 it was 6.18 µM (inactive). Besides, the GI50 in the experiment with LOX IMVI was 5.15 µM (inactive); with SN12C it was 6.82 µM (inactive).
Consider `COc1ccccc1/C=C/c1nc2ccccc2o1`, for which the GI50 in the experiment with OVCAR-5, with MDA-MB-435, with SR, with RPMI-8226, with SK-MEL-28 and in the experiment on PC-3 was > 10 µM (inactive) throughout. Besides, the GI50 in the experiment with SNB-75, in the experiment with NCI-H522, with CAKI-1, in the experiment with SF-268, in the experiment with U-251 and in the experiment with T47D was > 10 µM (inactive) throughout. The GI50 with A549, with MDA-N, in the experiment with EKVX, in the experiment on RXF 393, in the experiment with SF-539 and in the experiment on UACC-257 was > 10 µM (inactive) in each case. Moreover, the GI50 in the experiment with LOX IMVI and in the experiment on SN12C was > 10 µM (inactive) throughout.
For `O=C1c2ccccc2CN1c1ccc(OCCN2CCCCC2)cc1`, the GI50 in the experiment with OVCAR-5, in the experiment with MDA-MB-435, in the experiment on SR, with RPMI-8226, in the experiment with SK-MEL-28 and in the experiment with PC-3 was > 10 µM (inactive) each time. The GI50 in the experiment with SNB-75, with NCI-H522, with CAKI-1, with SF-268, in the experiment with U-251 and in the experiment on T47D was > 10 µM (inactive) in each case. The GI50 in the experiment on A549, in the experiment on MDA-N, in the experiment with EKVX, in the experiment with RXF 393, in the experiment with SF-539 and in the experiment with UACC-257 was > 10 µM (inactive) throughout. Further, the GI50 with LOX IMVI and in the experiment on SN12C was > 10 µM (inactive) in each case.
As for `Cc1cccc2c1NC(=O)/C2=N\Nc1ccccc1[N+](=O)[O-]`, the GI50 was 26.2 µM (inactive) with OVCAR-5; 22.6 µM (inactive) with MDA-MB-435; 2.7 µM (inactive) in the experiment with SR; 10 µM (inactive) in the experiment with RPMI-8226; 37.3 µM (inactive) in the experiment with SK-MEL-28; 10.9 µM (inactive) in the experiment on PC-3. Moreover, the GI50 was 11.1 µM (inactive) with SNB-75; 0.871 µM (active) with NCI-H522; 8.09 µM (inactive) in the experiment with CAKI-1; 6.04 µM (inactive) in the experiment on SF-268; 2.37 µM (inactive) in the experiment on U-251; 8.83 µM (inactive) with T47D. In addition, the GI50 is 4.49 µM (inactive) with A549; 20.1 µM (inactive) in the experiment on MDA-N; 1.58 µM (inactive) with EKVX; 3.66 µM (inactive) in the experiment on RXF 393; 2.12 µM (inactive) with SF-539; 13.8 µM (inactive) in the experiment on UACC-257. For the same compound, the GI50 in the experiment with LOX IMVI was 3.64 µM (inactive); with SN12C, 9.89 µM (inactive).
Consider `COc1cc2cc(C(=O)N3CC(CCl)c4c3cc([N+](C)(C)Cc3ccc([N+](=O)[O-])n3C)c3ccccc43)[nH]c2c(OC)c1OC` (stereo not given), for which the GI50 was 6.05 µM (inactive) in the experiment with OVCAR-5; 3.79 µM (inactive) in the experiment with MDA-MB-435; < 0.0385 µM (active) in the experiment on SR; 0.316 µM (active) in the experiment on RPMI-8226; 2.33 µM (inactive) in the experiment with SK-MEL-28; 0.184 µM (active) in the experiment on PC-3. Moreover, the GI50 was 2.35 µM (inactive) with SNB-75; 0.0638 µM (active) in the experiment on NCI-H522; 1.71 µM (inactive) in the experiment with CAKI-1; 2.62 µM (inactive) with SF-268; 2.33 µM (inactive) in the experiment with U-251; 3.23 µM (inactive) in the experiment on T47D. Besides, the GI50 in the experiment on A549 was 0.074 µM (active); in the experiment with MDA-N it was 2.13 µM (inactive); in the experiment with EKVX, 2.72 µM (inactive); in the experiment on RXF 393 it was 0.0107 µM (active); in the experiment with SF-539 it was 2.02 µM (inactive); in the experiment with UACC-257 it was 2.06 µM (inactive). Also, the GI50 in the experiment on LOX IMVI was 2.31 µM (inactive); with SN12C, 4.54 µM (inactive).
`C[C@]12C=CC(=O)C=C1CC[C@@H]1[C@@H]2C(=O)C[C@@]2(C)[C@H]1CC[C@]2(O)C(=O)CO` [PREDNISONE]: the GI50 in the experiment with OVCAR-5, in the experiment on MDA-MB-435, in the experiment with SR, with RPMI-8226, in the experiment with SK-MEL-28 and with PC-3 was > 100 µM (inactive) each time. In addition, the GI50 in the experiment on SNB-75, with NCI-H522, with CAKI-1, in the experiment on SF-268, in the experiment on U-251 and in the experiment with T47D was > 100 µM (inactive) throughout. Besides, the GI50 in the experiment with A549, in the experiment on MDA-N, in the experiment on EKVX, with RXF 393, in the experiment with SF-539 and in the experiment on UACC-257 was > 100 µM (inactive) in each case. Moreover, the GI50 in the experiment on LOX IMVI and in the experiment with SN12C was > 100 µM (inactive) each time.
